From ChEMBL document CHEMBL1125772, “Synthesis and receptor binding of enantiomeric N-substituted cis-N-[2-(3,4-dichlorophenyl)ethyl]-2-(1-pyrrolidinyl)cyclohexylamines as high-affinity sigma receptor ligands” (J Med Chem, 1991)

Molecular target: Kappa-type opioid receptor (Cavia porcellus, UniProt P41144)
Test: Compound was tested for the inhibitory concentration against opioid receptor kappa by using [3H]bremazocine as radioligand in guinea pig brain; No inhibition; call rule not given here

Chain of Kappa-type opioid receptor (P41144 whole entry): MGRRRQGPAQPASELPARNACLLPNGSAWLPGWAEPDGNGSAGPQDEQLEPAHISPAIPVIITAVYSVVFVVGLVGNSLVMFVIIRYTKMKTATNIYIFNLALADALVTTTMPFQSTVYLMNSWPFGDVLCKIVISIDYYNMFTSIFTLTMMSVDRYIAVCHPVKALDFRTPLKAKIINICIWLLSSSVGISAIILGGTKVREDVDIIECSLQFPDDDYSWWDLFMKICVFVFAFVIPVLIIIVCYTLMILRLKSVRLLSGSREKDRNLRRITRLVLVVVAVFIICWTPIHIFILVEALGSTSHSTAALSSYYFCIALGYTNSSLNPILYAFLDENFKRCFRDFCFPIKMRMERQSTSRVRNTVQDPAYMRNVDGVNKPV

Ki: Not Active
Compound: Clc1ccc(CCN[C@@H]2CCCC[C@@H]2N2CCCC2)cc1Cl
